In patent publication US20250049750A1, “MALTODEXTRIN FORMULATIONS” (Amazentis SA, priority 2023, published 2025):

Assay: Phase II single-dose oral pharmacokinetic study of urolithin A in a maltodextrin formulation
Type: in vivo
Conditions: human, n = 12
Experimental: A phase II clinical study was carried out to determine the bioavailability of urolithin A when dosed in a formulation containing maltodextrin to human subjects.
In particular, the pharmacokinetic parameters of the compound were investigated in an open-label, parallel-arm, randomized, single-period, single-dose pharmacokinetic study. Subject enrolled where healthy volunteers, both males and females aged between 18 and 45 years. Formulation details and clinical study procedures are described in the method section below.
Subjects were administered orally as a single dose with a maltodextrin formulation (Table 2). The formulations was administered to deliver a total dose of 500 mg Urolithin A per dosing. Plasma samples were collected pre-dosing and at sequential time points after dosing, i.e. 1 hr, 4 hrs, 6 hrs, 8 hrs, 12 hrs, 24 hrs, 72 hrs. Plasma levels of parent Urolithin A were determined and expressed as pg/ml.
A total of 24 participants were enrolled in the study (12 subject per group). Subjects were healthy male and female participants. Subjects were selected after a screening to meet all the following criteria aged between 18 and 45 years; with Body Mass Index (BMI) between 18.50-30.00 kg/m2;
Maltodextrin formulation (urolithin A Powder with Maltodextrin): half a scoop (1.5 g) of powder, containing 500 mg of Urolithin A. Composition is described in Table 2.
Mode of Administration: Participants take the powder orally on an empty stomach in a sitting position, after an overnight fast. The powder was mixed with 240±2 mL of milk, shaken well, and consumed. It was ensured that all liquid was swallowed without leaving any residue behind or retaining in the mouth.
This study was an open-label, parallel-arm, single-period, single-dose, randomized study wherein each participant received a single dose of allocated investigational product administered orally to the trial participants in a sitting posture. The formulation was administered with about 240 mL of whole milk (3% fat content) in a sitting posture.
PK blood samples were collected at pre-dose and post-dose at 1 hr, 4 hrs, 6 hrs, 8 hrs, 12 hrs, 24 hrs, 72 hrs. PK blood samples were collected by direct vein puncture or using a venous cannula. When multiple blood sample collection were scheduled on the same day from the same participant, at the discretion of the investigator, a venous cannula was inserted and blood samples collected from the cannula to avoid multiple pricks. For the same, an intravenous (IV) cannula was placed in a forearm vein or dorsal aspect of the hand of the participants. Intravenous indwelling cannula kept in situ as long as required by injecting 0.3 mL of normal saline or heparinized saline (to prevent the cannula from clogging). Because the cannula contains stagnant blood and normal or heparinized saline, it was […] before collection of the pharmacokinetic blood sample, for the same, 0.3 mL (or as appropriate depending upon the size and length of the cannula) of normal saline/heparinized saline diluted blood was discarded prior to collection of the next PK sample. […] All PK blood samples was collected or transferred (in case if collected in a syringe) in K2-EDTA blood collection tubes.
After collection, the PK blood samples were centrifuged at 4000 RPM at 4° C.±2° C. for 10 minutes. The plasma was separated and transferred to labeled polypropylene tubes and stored in a freezer at −80° C.±10° C. Pharmacokinetics parameters of Urolithin A were calculated from the concentration Vs. time data using Phoenix@WinNonlin® professional software (Version 8.1.1 or higher) (Certara, Princeton, New Jersey, USA).

For `O=c1oc2cc(O)ccc2c2ccc(O)cc12` [Urolithin A], the “Urolithin concentrations in blood, Mean” value (Pre-dose, plasma parent Urolithin A) was 1.00 pg/mL, the concentration at 1 h (both sexes, 1 h after single oral 500 mg Urolithin A in maltodextrin formulation, plasma, read-out: Urolithin concentrations in blood, Mean) was 0.551 ng/mL and the concentration at 4 h (both sexes, 4 h after single oral 500 mg Urolithin A in maltodextrin formulation, plasma, read-out: Urolithin concentrations in blood, Mean) was 1.07 ng/mL. The concentration at 6 h (both sexes, 6 h after single oral 500 mg Urolithin A in maltodextrin formulation, plasma, read-out: Urolithin concentrations in blood, Mean) was 1.4 ng/mL, the concentration at 8 h (both sexes, 8 h after single oral 500 mg Urolithin A in maltodextrin formulation, plasma, read-out: Urolithin concentrations in blood, Mean) was 0.775 ng/mL and the concentration at 12 h (both sexes, 12 h after single oral 500 mg Urolithin A in maltodextrin formulation, plasma, read-out: Urolithin concentrations in blood, Mean) was 0.72 ng/mL. The concentration at 24 h (both sexes, 24 h after single oral 500 mg Urolithin A in maltodextrin formulation, plasma, read-out: Urolithin concentrations in blood, Mean) was 0.404 ng/mL and the concentration at 72 h (both sexes, 72 h after single oral 500 mg Urolithin A in maltodextrin formulation, plasma, read-out: Urolithin concentrations in blood, Mean) was 0.167 ng/mL.
